Assay results as given in patent publication US5466671A, “Apidaecin-type peptide antibiotics with improved activities and/or different antibacterial spectrum” (priority 1994, dated 1995).
Residues, ends and D or L forms follow the SMILES beside them.

Columns and labels:
[1] = system: Salmonella typhimurium; test: Inhibition zone assay (agar plate); format: cell-based; details: agar plate, 50 nanomoles/well, 3 mm wells
[2] = system: E. coli 23802; test: Minimal inhibitory concentration (liquid culture); details: inoculum 5000 CFU/ml; a-b = highest concentration with growth - lowest without growth
[3] = system: M. morganii; test: Minimal inhibitory concentration (liquid culture); details: inoculum 400 CFU/ml; a-b = highest concentration with growth - lowest without growth
[4] = system: Francisella tularensis; format: cell-based; details: agar plate, 50 nanomoles/well, 3 mm wells
[5] = system: Acinetobacter calcoaceticus; test: Inhibition zone assay (agar plate); format: cell-based; details: agar plate, 50 nanomoles/well, 3 mm wells
[6] = system: Escherichia coli (ATCC11775); test: Inhibition zone assay (agar plate); format: cell-based; details: agar plate, 50 nanomoles/well, 3 mm wells
[7] = system: Klebsiella pneumoniae; test: Inhibition zone assay (agar plate); format: cell-based; details: agar plate, 50 nanomoles/well, 3 mm wells
[8] = system: A. calcoaceticus; test: Minimal inhibitory concentration (liquid culture); details: inoculum 16 × 10^6 CFU/ml; a-b = highest concentration with growth - lowest without growth
[9] = system: Pseudomonas syringae; test: Inhibition zone assay (agar plate); format: cell-based; details: agar plate, 50 nanomoles/well, 3 mm wells
[10] = system: Haemophilus influenzae; test: Inhibition zone assay (agar plate); format: cell-based; details: 50 nanomoles/well, 3 mm wells
[11] = system: Y. enterocolitica; test: Minimal inhibitory concentration (liquid culture); details: inoculum 5000 CFU/ml; a-b = highest concentration with growth - lowest without growth
[12] = system: E. coli 25922; test: Minimal inhibitory concentration (liquid culture); details: inoculum 1100 CFU/ml; a-b = highest concentration with growth - lowest without growth
[13] = system: E. coli Apid^R; test: Minimal inhibitory concentration (liquid culture); format: cell-based; details: a-b = highest concentration with growth - lowest without growth
Source text: For details see `Experimental Procedures`.

[14] = system: Salmonella typhi; format: cell-based; details: agar plate, 50 nanomoles/well, 3 mm wells
[15] = system: Escherichia coli (K514); format: cell-based; details: agar plate, 50 nanomoles/well, 3 mm wells
[16] = system: S. typhimurium; test: Minimal inhibitory concentration (liquid culture); details: inoculum 8 × 10^6 CFU/ml; a-b = highest concentration with growth - lowest without growth
[17] = system: E. coli 11775; test: Minimal inhibitory concentration (liquid culture); details: a-b = highest concentration with growth - lowest without growth
[18] = system: Enterobacter cloacae; test: Inhibition zone assay (agar plate); format: cell-based; details: agar plate, 50 nanomoles/well, 3 mm wells
[19] = system: Erwinia amylovora; test: Inhibition zone assay (agar plate); format: cell-based; details: agar plate, 50 nanomoles/well, 3 mm wells
[20] = system: Rhizobium meliloti; test: Inhibition zone assay (agar plate); format: cell-based; details: 50 nanomoles/well, 3 mm wells
[21] = system: Yersinia enterocolitica; test: Inhibition zone assay (agar plate); format: cell-based; details: 50 nanomoles/well, 3 mm wells
[22] = system: Agrobacterium tumefaciens; test: Inhibition zone assay (agar plate); format: cell-based; details: agar plate, 50 nanomoles/well, 3 mm wells

SMILES | inhibition zone diameter (number of plus signs) [1] | minimal inhibitory concentration (MIC) [2] | minimal inhibitory concentration (MIC) [3] | inhibition zone diameter (number of plus signs) [4] | inhibition zone diameter (number of plus signs) [5] | inhibition zone diameter (number of plus signs) [6] | inhibition zone diameter (number of plus signs) [7] | minimal inhibitory concentration (MIC) [8] | inhibition zone diameter (number of plus signs) [9] | inhibition zone diameter (number of plus signs) [10] | minimal inhibitory concentration (MIC) [11] | minimal inhibitory concentration (MIC) [12] | minimal inhibitory concentration (MIC) ([13]; inoculum 12 × 10^6 CFU/ml) | minimal inhibitory concentration (MIC) ([13]; inoculum 1000 CFU/ml) | minimal inhibitory concentration (MIC) [16] | minimal inhibitory concentration (MIC) ([17]; inoculum 16 × 10^6 CFU/ml) | minimal inhibitory concentration (MIC) ([17]; inoculum 1200 CFU/ml) | inhibition zone diameter (number of plus signs) [18] | inhibition zone diameter (number of plus signs) [19] | other results
CC(C)C[C@H](NC(=O)[C@H](CCCNC(=N)N)NC(=O)[C@@H]1CCCN1C(=O)[C@H](Cc1c[nH]cn1)NC(=O)[C@@H]1CCCN1C(=O)[C@@H]1CCCN1C(=O)[C@H](CCCNC(=N)N)NC(=O)[C@@H]1CCCN1C(=O)[C@@H]1CCCN1C(=O)[C@@H](NC(=O)[C@H](CCC(N)=O)NC(=O)[C@H](CCC(N)=O)NC(=O)[C@@H]1CCCN1C(=O)[C@H](CCCNC(=N)N)NC(=O)[C@@H]1CCCN1C(=O)[C@H](CCCCN)NC(=O)[C@H](CC(N)=O)NC(=O)[C@@H](N)CO)C(C)C)C(=O)O [Yj +S, Ser--Asn--Lys--Pro--Arg--Pro--Gln--Gln--Val--Pro--Pro--Arg--Pro--Pro--His--Pro--Arg--Leu] (H-SNKPRPQQVPPRPPHPRL-OH) | +++ ((+++) 10-14 mm) | 0.5 to 1 µg/mL | 0.5 to 1 µg/mL | ++ ((++) 7-9 mm) | + ((+) 5-6 mm) | +++ ((+++) 10-14 mm) | ++ ((++) 7-9 mm) | 2 to 10 µg/mL | ++++ ((++++) 15-19 mm) | +++ ((+++) 10-14 mm) | 1 to 5 µg/mL | 0.1 to 0.5 µg/mL | 10 to 20 µg/mL | 1 to 5 µg/mL | 0.1 to 0.5 µg/mL | 0.1 to 0.5 µg/mL | 0.1 to 0.5 µg/mL | ++ ((++) 7-9 mm) | +++ ((+++) 10-14 mm) | inhibition zone diameter (number of plus signs) [14]: ++ ((++) 7-9 mm); inhibition zone diameter (number of plus signs) [15]: ++ ((++) 7-9 mm)
CC(C)C[C@H](NC(=O)[C@H](CCCNC(=N)N)NC(=O)[C@@H]1CCCN1C(=O)[C@H](Cc1c[nH]cn1)NC(=O)[C@@H]1CCCN1C(=O)[C@@H]1CCCN1C(=O)[C@H](CCCNC(=N)N)NC(=O)[C@@H]1CCCN1C(=O)[C@@H]1CCCN1C(=O)[C@@H](NC(=O)[C@H](CCC(N)=O)NC(=O)[C@H](CCC(N)=O)NC(=O)[C@@H]1CCCN1C(=O)[C@H](CCCNC(=N)N)NC(=O)[C@@H]1CCCN1C(=O)[C@H](CCCCN)NC(=O)[C@@H](N)CC(N)=O)C(C)C)C(=O)O [Yj -S, Asn--Lys--Pro--Arg--Pro--Gln--Gln--Val--Pro--Pro--Arg--Pro--Pro--His--Pro--Arg--Leu] (H-NKPRPQQVPPRPPHPRL-OH) | +++ ((+++) 10-14 mm) | 1 to 5 µg/mL | 1 to 5 µg/mL | + ((+) 5-6 mm) | ++ ((++) 7-9 mm) | +++ ((+++) 10-14 mm) | ++ ((++) 7-9 mm) | 2 to 10 µg/mL | ++++ ((++++) 15-19 mm) | ++ ((++) 7-9 mm) | 1 to 5 µg/mL | 0.1 to 0.5 µg/mL | 5 to 10 µg/mL | 5 to 10 µg/mL | 0.1 to 0.5 µg/mL | 0.1 to 0.5 µg/mL | 0.1 to 0.5 µg/mL | ++ ((++) 7-9 mm) | ++++ ((++++) 15-19 mm) | inhibition zone diameter (number of plus signs) [20]: ++++ ((++++) 15-19 mm); inhibition zone diameter (number of plus signs) [21]: ++ ((++) 7-9 mm); inhibition zone diameter (number of plus signs) [22]: ++ ((++) 7-9 mm)
